In US10278942B2 (PELOTON THERAPEUTICS, INC., priority 2015, dated 2019) one finds IC50 data, which are given here for 72 molecules.

A value given as a limit tells only on which side of the number the result lay.

T1 sequence (Q99814 240-350 limits assumed): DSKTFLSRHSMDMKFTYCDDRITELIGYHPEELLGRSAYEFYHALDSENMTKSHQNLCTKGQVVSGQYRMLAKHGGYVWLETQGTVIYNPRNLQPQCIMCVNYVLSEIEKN

One experiment has as its target T1, HIF-2α HIS TAG-PASB Domain (Homo sapiens, UniProt Q99814).
T1 construct: 100 nM HIF-2α HIS TAG-PASB Domain
Kind of experiment: HIF-2α Scintillation Proximity Assay (SPA). The experiment is classed as binding. To be noted: Scintillation Proximity Assay IC50 (nM). Here is the method: The total assay volume was about 100 μL in the following configuration: 2 μL compound in 100% DMSO, 88 μL buffer with protein and probe and 10 μL of SPA beads. […] The percent inhibition was determined and IC50 values were calculated using the Dotmatics system based on the following equation: % inhibition=[(high control−sample)/(high control−low control)]×100.
Take `N#Cc1cc(F)cc(Oc2ccc3c(c2C(F)F)C(=O)C(F)(F)S3(=O)=O)c1` [Compound 385]: the IC50 was > 1000 nM.
As for `CS(=O)(=O)c1ccc(Oc2cc(F)cc(C#N)c2)c2c1C(O)C(F)(F)CC2` (stereo not drawn) [Compound 181], the IC50 is > 1000 nM.
Turning to `O=S1(=O)CCC(O)c2c1ccc(Oc1cc(F)cc(F)c1)c2C(F)F` (stereo not drawn) [Compound 402], the IC50 was > 1000 nM.

The experiment is the same for the next values; noted with them: read-out: Scintillation Proximity Assay IC50.
Consider `Cc1ccc(Cl)cc1Oc1ccc(S(=O)(=O)C(F)(F)F)cc1Br` [Compound 174], for which the half-maximal inhibitory concentration (IC50) was > 1000 nM.
`CS(=O)(=O)c1ccc(Oc2cncc(Cl)c2)c2c1[C@H](O)C(F)(F)[C@@H]2F` [Compound 331]: the IC50 was < 50 nM.
Still for that read-out and setting: to `O=S(=O)(c1ccc(Oc2cc(F)cc(Cl)c2)c(CO)c1CO)C(F)F` [Compound 87] belongs > 1000 nM; to `CC(Oc1ccc(S(=O)(=O)C(F)(F)F)c2c1CC(F)(F)C2O)C(=O)N(C)C` (stereo not drawn) [Compound 647], > 1000 nM; to `N#Cc1cc(F)cc(Oc2ccc(S(=O)(=O)C(F)(F)F)c3c2CC(F)C3N)c1` (stereo not drawn) [Compound 265], 50 to 249 nM.
Consider `CCc1ccc(S(=O)(=O)C(F)(F)F)c2c1CCC2O` (stereo not drawn) [Compound 514], for which the IC50 is > 1000 nM.
As for `N#Cc1cncc(Oc2ccc(S(=O)(=O)C(F)F)c3c2CC[C@H]3O)c1` [Compound 4], the IC50 was > 1000 nM.
As to `N#Cc1cc(F)cc(Oc2ccc3c(c2C(F)F)C(N)C(F)(F)S3(=O)=O)c1` (stereo not drawn) [Compound 372], the IC50 was < 50 nM.
On to `O=S(=O)(c1ccc(Cc2ccccc2)c2c1C(O)CC2)C(F)(F)F` (stereo not drawn) [Compound 510], for which the IC50 is > 1000 nM.
Regarding `N#Cc1cncc(Oc2ccc3c(c2Br)[C@@H](O)CS3(=O)=O)c1` [Compound 420], the 50% inhibitory concentration (IC50) was > 1000 nM.
For the molecule `CN(Cc1cccs1)c1ccc(S(=O)(=O)C(F)F)c2c1CC(F)(F)[C@H]2O` [Compound 530], the IC50 is > 1000 nM.
For `CC1(O)c2cc(Oc3cc(F)cc(F)c3)ccc2S(=O)(=O)C1(F)F` (stereo not drawn) [Compound 425], the IC50 was > 1000 nM.
Same read-out and setting: for `COc1ccc(S(C)(=O)=O)c2c1CC(F)(F)[C@H]2O` [Compound 777] the value was > 1000 nM.
Same read-out and setting: to `O=S(=O)(c1ccc(Oc2ccc(F)cc2F)c(Br)c1)C(F)(F)F` [Compound 175] belongs > 1000 nM.
The same measure, in the same setting: for `NC1c2c(ccc(Oc3cc(F)cc(F)c3)c2C(F)F)S(=O)(=O)C1F` (stereo not drawn) [Compound 366] the value was > 1000 nM.
Turning to `CC1(C)CC[C@H](O)[C@H](c2ccc(S(=O)(=O)C(F)(F)F)c3c2CC(F)(F)[C@H]3O)C1` [Compound 548], the IC50 is > 1000 nM.
Regarding `CC1CC(Oc2ccc(S(=O)(=O)C(F)(F)F)c3c2CCC3O)CCO1` (stereo not drawn) [Compound 624], the IC50 is > 1000 nM.
With `OC1c2c(I)cc(I)c(OCC(F)F)c2CC1F` (stereo not drawn) [Compound 667], the IC50 was > 1000 nM.
Take `C/C(=N\O)c1c(S(=O)(=O)C(F)(F)F)ccc(Oc2cc(F)cc(Cl)c2)c1Br` [Compound 106]: the IC50 lay within 250 to 1000 nM.
For the molecule `CS(=O)(=O)c1ccc(Nc2cncc(Cl)c2)c2c1C(O)CC2` (stereo not drawn) [Compound 499], the IC50 is > 1000 nM.
The same measure, in the same setting: for `O=S(=O)(c1ccc(OC2CCOCC2)c2c1C(O)CC2)C(F)(F)F` (stereo not drawn) [Compound 745] the value was > 1000 nM.
As for `N=S(=O)(c1ccc(Oc2cc(F)cc(Cl)c2)c(Br)c1)C(F)(F)F` (stereo not drawn) [Compound 71], the IC50 lay in the range of 250 to 1000 nM.
Consider `O=S(=O)(c1ccc(Sc2cc(F)cc(Cl)c2)c2c1[C@H](O)CC2)C(F)F` [Compound 493, (R)-4-((3-chloro-5-fluorophenyl)thio)-7-((difluoromethyl)sulfonyl)-2,3-dihydro-1H-inden-1-ol], for which the IC50 is > 1000 nM.
With `N#Cc1cc(F)cc(Oc2ccc3c(c2CF)C(O)C(F)(F)S3(=O)=O)c1` (stereo not drawn) [Compound 388], the IC50 lay within 50 to 249 nM.
As for `CC1(COc2ccc(S(=O)(=O)C(F)(F)F)c3c2CCC3O)COC1` (stereo not drawn) [Compound 621], the IC50 was > 1000 nM.
Consider `N#Cc1cc(F)cc(Oc2ccc3c(c2Br)C(=O)C(F)(F)S3(=O)=O)c1` [Compound 393], for which the IC50 is > 1000 nM.
Take `O=S(=O)(c1ccc(Oc2ccc3[nH]ncc3c2)c2c1C(O)C(F)(F)C2)C(F)(F)F` (stereo not drawn) [Compound 238]: the concentration for half-maximal inhibition (IC50) was > 1000 nM.
Same read-out and setting: to `OC1CCc2c(OCC(F)F)ccc(C(F)(F)F)c21` (stereo not drawn) [Compound 662] belongs > 1000 nM; to `CC(C)(C)OC(=O)N1CC(Oc2ccc(S(=O)(=O)C(F)(F)F)c3c2CC(F)(F)[C@H]3O)C1` [Compound 791], > 1000 nM; to `O=S(=O)(c1ccc(OCC2CC2)c2c1C(O)CC2)C(F)(F)F` (stereo not drawn) [Compound 597], > 1000 nM.
As for `OC1c2c(F)ccc(OCC(F)F)c2CC1(F)F` (stereo not drawn) [Compound 652], the IC50 was > 1000 nM.
Consider `O=S(=O)(c1cc(C(F)(F)F)ccc1Oc1cc(F)cc(Cl)c1)C(F)(F)F` [Compound 129], for which the IC50 was > 1000 nM.
As to `CC1(C)CC[C@H](O)[C@@H](c2ccc(S(=O)(=O)C(F)(F)F)c3c2CC(F)(F)[C@H]3O)C1` [Compound 544], the IC50 is > 1000 nM.
In the case of `O=S(=O)(c1ccc(N2CCOCC2)c2c1[C@H](O)C(F)(F)C2)C(F)(F)F` [Compound 490, (S)-2,2-difluoro-4-morpholino-7-((trifluoromethyl)sulfonyl)-2,3-dihydro-1H-inden-1-ol], the IC50 was > 1000 nM.
The same measure, in the same setting: for `CS(=O)(=O)c1ccc(Oc2cncc(C#N)c2)c2c1[C@H](O)C(F)(F)[C@H]2F` [Compound 343] the value was > 1000 nM; for `NCC1(O)CCc2c(OCC(F)F)ccc(C(F)(F)F)c21` (stereo not drawn) [Compound 705], > 1000 nM; for `Cc1c(Oc2cc(F)cc(C#N)c2)ccc(S(=O)(=O)C(F)(F)F)c1/C=C/c1nnco1` [Compound 150], > 1000 nM.
Still for that read-out and setting: to `CCOc1ccc(C#N)c2c1CC(F)(F)[C@H]2O` [Compound 674] belongs > 1000 nM; to `CS(=O)(=O)c1ccc(O[C@H]2C[C@H](O)C2)c2c1[C@H](O)C(F)(F)[C@@H]2F` [Compound 738], > 1000 nM.
`Cc1c(Oc2cc(F)cc(C#N)c2)ccc(S(=O)(=O)C(F)(F)F)c1C#CCO` [Compound 142]: the IC50 was > 1000 nM.
For `N#Cc1c(Oc2cc(F)cc(F)c2)ccc2c1C(O)(C(F)(F)F)CS2(=O)=O` (stereo not drawn) [Compound 448], the IC50 is > 1000 nM.
On to `CS(=O)(=O)c1ccc(Nc2cc(F)cc(C#N)c2)c2c1C(O)C(F)(F)C2` (stereo not drawn) [Compound 502], for which the concentration for half-maximal inhibition (IC50) is > 1000 nM.
As for `CCCc1ccc(S(=O)(=O)C(F)(F)F)c2c1CCC2O` (stereo not drawn) [Compound 515], the IC50 was > 1000 nM.
As to `CC1(O)c2c(ccc(OC3CC(F)(F)C3)c2C#N)S(=O)(=O)C1(F)F` (stereo not drawn) [Compound 461], the IC50 was > 1000 nM.
Take `Cc1cc(Oc2ccc(S(=O)(=O)C(F)F)c3c2CC(F)(F)C3=O)ccc1F` [Compound 197]: the IC50 lay within 250 to 1000 nM.
Same read-out and setting: to `N#Cc1c(Oc2cc(F)cc(Cl)c2)ccc2c1CCS2(=O)=O` [Compound 351] belongs > 1000 nM.
On to `CC(=O)N1CCC(Oc2ccc(S(=O)(=O)C(F)(F)F)c3c2CC(F)(F)C3O)C1` (stereo not drawn) [Compound 629], for which the IC50 is > 1000 nM.
On to `O=S(=O)(c1ccc(Oc2cc(F)cc(Cl)c2)c(Cl)c1CNCC(F)(F)F)C(F)F` [Compound 47], for which the IC50 is > 1000 nM.
The same measure, in the same setting: to `O=C(O)COc1ccc(S(=O)(=O)C(F)(F)F)c2c1CC(F)(F)C2O` (stereo not drawn) [Compound 633] belongs > 1000 nM; to `CN=S(=O)(c1ccc(Oc2cc(F)cc(Cl)c2)c(Br)c1)C(F)F` (stereo not drawn) [Compound 70], 250 to 1000 nM.
Turning to `CN(C)CCOc1ccc(S(=O)(=O)C(F)(F)F)c2c1CC(F)(F)C2O` (stereo not drawn) [Compound 641], the IC50 is > 1000 nM.
For `N#Cc1cc(F)cc(Oc2ccc(S(=N)(=O)C(F)(F)F)cc2C#N)c1` (stereo not drawn) [Compound 73], the IC50 is > 1000 nM.
As for `O=C1CC[C@H](Oc2ccc(S(=O)(=O)C(F)(F)F)c3c2CC(F)(F)[C@H]3O)CN1` [Compound 719], the half-inhibitory concentration (IC50) was > 1000 nM.
Still for that read-out and setting: to `O=S(=O)(c1ccc(Oc2cc(F)cc(Cl)c2)c(CCCO)c1)C(F)(F)F` [Compound 126] belongs > 1000 nM.
Still for that read-out and setting: to `CC1(C)C[C@@H](O)C[C@H](c2ccc(S(=O)(=O)C(F)(F)F)c3c2CC(F)(F)[C@H]3O)C1` [Compound 552] belongs > 1000 nM; to `O=S1(=O)CC(O)c2c1ccc(Oc1cc(F)cc(F)c1)c2Br` (stereo not drawn) [Compound 418], > 1000 nM.
Turning to `CC1(C)C(O)c2c(ccc(Oc3cc(F)cc(Cl)c3)c2C#N)S1(=O)=O` (stereo not drawn) [Compound 408], the IC50 is > 1000 nM.
For `N#CN=S(=O)(CF)c1ccc(Oc2cc(F)cc(C#N)c2)c2c1[C@H](O)C(F)(F)C2` (stereo partly drawn) [Compound 286], the IC50 was < 50 nM.
With `CS(=O)(=NC#N)c1ccc(Oc2cc(F)cc(C#N)c2)c2c1[C@H](O)C(F)(F)[C@H]2F` (stereo partly drawn) [Compound 318], the IC50 is > 1000 nM.
As for `O=S1(=O)C[C@H](O)c2c1ccc(Oc1cccc(F)c1)c2Br` [Compound 419], the half-maximal inhibitory concentration (IC50) is > 1000 nM.
As for `O=S(=O)(c1ccc(OC2CNC2)c2c1[C@H](O)C(F)(F)C2)C(F)(F)F` [Compound 792], the IC50 was > 1000 nM.
Consider `N#Cc1cc(S(=N)(=O)C(F)(F)F)ccc1Oc1cc(F)cc(Cl)c1` (stereo not drawn) [Compound 72], for which the half-inhibitory concentration (IC50) lay in the range of 250 to 1000 nM.
As for `CC(C)(C)OC(=O)NCc1c(S(=O)(=O)C(F)F)ccc(Oc2cc(F)cc(Cl)c2)c1Br` [Compound 83], the IC50 is > 1000 nM.
Regarding `COCCNC1c2c(ccc(Oc3cc(F)cc(C#N)c3)c2C(F)F)S(=O)(=O)C1(F)F` (stereo not drawn) [Compound 382], the half-inhibitory concentration (IC50) was > 1000 nM.
Turning to `O=S1(=O)C[C@H](O)c2c1ccc(Oc1cc(F)cc(F)c1)c2Br` [Compound 413], the IC50 was > 1000 nM.
Still for that read-out and setting: to `O=S(=O)(c1ccc(OCCO)c2c1C(O)CC2)C(F)(F)F` (stereo not drawn) [Compound 613] belongs > 1000 nM.
As to `O=S(=O)(c1ccc(OC2CCNC2)c2c1C(O)C(F)(F)C2)C(F)(F)F` (stereo not drawn) [Compound 643], the IC50 was > 1000 nM.
In the case of `CS(=O)(=O)c1ccc(Oc2cc(F)cc(Cl)c2)c2c1C(O)CC2CO` (stereo not drawn) [Compound 281], the IC50 was in the range of 250 to 1000 nM.
As for `N#Cc1cncc(Oc2ccc(S(=O)(=O)CF)c3c2[C@H](F)C(F)(F)[C@H]3O)c1` [Compound 345], the IC50 was > 1000 nM.
